Test results published in paper PMC4457528, “Identification of Novel Small Molecule Inhibitors of Oncogenic RET Kinase” (PLoS ONE, 2015).
Where two headings read alike, the source gives them in different places.

Assays:
Assay in all cases: KinomeScan kinase panel, single concentration 10 µM
Format in all cases: binding
KinomeScan kinase panel [1] = target: T1, KinomeScan kinase panel (Homo sapiens, UniProt P19525); conditions: 10 µM
T1 construct: purchased DiscoveRx (KinomeScan)

KinomeScan kinase panel [2] = target: T2, KinomeScan kinase panel (Homo sapiens, UniProt P27448); conditions: MARK3, 10 µM; read-out: score (%)
T2 construct: purchased DiscoveRx (KinomeScan)
T2 sequence (P27448 whole entry): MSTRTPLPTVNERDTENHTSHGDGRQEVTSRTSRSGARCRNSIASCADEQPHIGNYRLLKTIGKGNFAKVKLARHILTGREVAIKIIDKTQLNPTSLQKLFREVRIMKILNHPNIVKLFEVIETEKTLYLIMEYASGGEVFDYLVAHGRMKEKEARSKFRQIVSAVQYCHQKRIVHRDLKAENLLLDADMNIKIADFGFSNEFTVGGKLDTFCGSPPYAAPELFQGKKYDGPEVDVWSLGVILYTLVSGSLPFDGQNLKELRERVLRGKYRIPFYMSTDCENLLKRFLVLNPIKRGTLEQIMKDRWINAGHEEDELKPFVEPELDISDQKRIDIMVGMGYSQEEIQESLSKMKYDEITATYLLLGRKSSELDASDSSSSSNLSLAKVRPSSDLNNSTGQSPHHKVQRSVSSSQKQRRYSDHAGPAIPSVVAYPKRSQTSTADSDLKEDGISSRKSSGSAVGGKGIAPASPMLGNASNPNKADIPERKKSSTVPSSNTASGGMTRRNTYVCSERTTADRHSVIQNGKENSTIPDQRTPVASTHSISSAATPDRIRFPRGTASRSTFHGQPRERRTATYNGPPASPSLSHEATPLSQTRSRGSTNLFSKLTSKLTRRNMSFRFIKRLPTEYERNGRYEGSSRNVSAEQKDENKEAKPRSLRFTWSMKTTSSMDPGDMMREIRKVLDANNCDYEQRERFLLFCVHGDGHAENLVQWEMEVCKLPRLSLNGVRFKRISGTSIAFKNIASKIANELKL

KinomeScan kinase panel [3] = target: T3, KinomeScan kinase panel (Homo sapiens, UniProt P28482); conditions: ERK2, 10 µM; read-out: score (%)
T3 construct: purchased DiscoveRx (KinomeScan)
T3 sequence (P28482 whole entry): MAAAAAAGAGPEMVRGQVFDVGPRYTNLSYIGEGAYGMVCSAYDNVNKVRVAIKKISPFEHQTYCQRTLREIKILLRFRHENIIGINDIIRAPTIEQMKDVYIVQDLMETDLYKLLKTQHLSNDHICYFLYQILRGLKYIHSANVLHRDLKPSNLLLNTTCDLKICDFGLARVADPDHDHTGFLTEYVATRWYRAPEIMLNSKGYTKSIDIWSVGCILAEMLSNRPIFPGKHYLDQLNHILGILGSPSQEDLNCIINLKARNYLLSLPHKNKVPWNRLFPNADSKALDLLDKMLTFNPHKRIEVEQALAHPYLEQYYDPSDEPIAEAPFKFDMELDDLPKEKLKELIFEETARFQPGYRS

KinomeScan kinase panel [4] = target: T4, KinomeScan kinase panel (Homo sapiens, UniProt P49760); conditions: CLK2, 10 µM; read-out: score (%)
T4 construct: purchased DiscoveRx (KinomeScan)

KinomeScan kinase panel [5] = target: T5, KinomeScan kinase panel (Homo sapiens, UniProt P53350); conditions: PLK1, 10 µM; read-out: score (%)
T5 construct: purchased DiscoveRx (KinomeScan)
T5 sequence (P53350 whole entry): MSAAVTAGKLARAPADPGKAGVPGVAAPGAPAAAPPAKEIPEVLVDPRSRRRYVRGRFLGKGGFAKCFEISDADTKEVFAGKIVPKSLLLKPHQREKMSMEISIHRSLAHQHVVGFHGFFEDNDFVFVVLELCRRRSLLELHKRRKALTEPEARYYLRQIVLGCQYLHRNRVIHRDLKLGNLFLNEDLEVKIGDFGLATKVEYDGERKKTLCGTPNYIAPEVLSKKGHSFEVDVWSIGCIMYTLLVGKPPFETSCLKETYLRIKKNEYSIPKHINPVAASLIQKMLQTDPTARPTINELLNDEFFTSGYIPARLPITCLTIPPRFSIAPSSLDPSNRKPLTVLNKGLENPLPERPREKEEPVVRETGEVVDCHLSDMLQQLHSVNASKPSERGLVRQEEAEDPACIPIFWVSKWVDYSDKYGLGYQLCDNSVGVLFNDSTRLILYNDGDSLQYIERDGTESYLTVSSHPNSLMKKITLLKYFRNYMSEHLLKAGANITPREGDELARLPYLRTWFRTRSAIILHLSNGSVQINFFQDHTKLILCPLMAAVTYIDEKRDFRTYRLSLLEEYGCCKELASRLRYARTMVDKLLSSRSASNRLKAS

KinomeScan kinase panel [6] = target: T6, KinomeScan kinase panel (Homo sapiens, UniProt Q02763); conditions: read-out: score (%)
T6 construct: purchased DiscoveRx (KinomeScan)

KinomeScan kinase panel [7] = target: T7, KinomeScan kinase panel (Homo sapiens, UniProt Q15303); conditions: ERBB4, 10 µM; read-out: score (%)
T7 construct: purchased DiscoveRx (KinomeScan)
T7 sequence (Q15303 26-1308): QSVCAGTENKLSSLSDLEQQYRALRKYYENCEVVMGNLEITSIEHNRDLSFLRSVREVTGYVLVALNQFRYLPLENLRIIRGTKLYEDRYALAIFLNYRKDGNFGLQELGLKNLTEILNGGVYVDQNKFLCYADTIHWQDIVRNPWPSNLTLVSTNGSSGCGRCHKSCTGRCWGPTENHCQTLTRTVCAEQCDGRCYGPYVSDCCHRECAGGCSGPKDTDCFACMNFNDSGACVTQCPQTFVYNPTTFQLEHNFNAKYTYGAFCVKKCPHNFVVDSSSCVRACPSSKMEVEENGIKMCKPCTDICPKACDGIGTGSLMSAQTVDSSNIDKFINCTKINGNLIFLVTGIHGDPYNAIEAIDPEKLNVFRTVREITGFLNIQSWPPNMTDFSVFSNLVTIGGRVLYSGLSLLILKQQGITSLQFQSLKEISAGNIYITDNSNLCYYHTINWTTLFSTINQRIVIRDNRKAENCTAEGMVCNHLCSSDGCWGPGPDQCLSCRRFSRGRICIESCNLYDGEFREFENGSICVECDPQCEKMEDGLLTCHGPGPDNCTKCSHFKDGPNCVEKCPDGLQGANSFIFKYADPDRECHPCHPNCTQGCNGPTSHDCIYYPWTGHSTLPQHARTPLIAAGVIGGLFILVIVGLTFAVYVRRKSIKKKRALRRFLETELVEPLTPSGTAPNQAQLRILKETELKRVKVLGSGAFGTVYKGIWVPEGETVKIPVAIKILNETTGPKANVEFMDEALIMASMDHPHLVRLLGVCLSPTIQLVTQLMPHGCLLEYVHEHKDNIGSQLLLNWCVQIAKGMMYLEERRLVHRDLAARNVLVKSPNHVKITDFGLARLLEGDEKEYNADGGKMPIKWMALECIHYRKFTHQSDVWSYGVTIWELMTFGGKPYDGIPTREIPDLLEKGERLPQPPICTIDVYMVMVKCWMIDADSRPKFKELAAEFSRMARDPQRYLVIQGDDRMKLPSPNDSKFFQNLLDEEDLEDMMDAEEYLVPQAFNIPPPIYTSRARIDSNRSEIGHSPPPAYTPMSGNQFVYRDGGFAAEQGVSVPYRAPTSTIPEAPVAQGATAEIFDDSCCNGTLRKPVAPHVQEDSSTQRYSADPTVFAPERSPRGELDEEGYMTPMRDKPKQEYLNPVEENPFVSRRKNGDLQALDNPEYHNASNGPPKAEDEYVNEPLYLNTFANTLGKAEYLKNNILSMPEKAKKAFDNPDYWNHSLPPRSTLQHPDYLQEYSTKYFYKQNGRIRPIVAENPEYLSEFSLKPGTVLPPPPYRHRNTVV

KinomeScan kinase panel [8] = target: T8, KinomeScan kinase panel (Homo sapiens, UniProt Q16620); conditions: 10 µM, read-out: score (%)
T8 construct: purchased DiscoveRx (KinomeScan)
T8 sequence (Q16620 32-822): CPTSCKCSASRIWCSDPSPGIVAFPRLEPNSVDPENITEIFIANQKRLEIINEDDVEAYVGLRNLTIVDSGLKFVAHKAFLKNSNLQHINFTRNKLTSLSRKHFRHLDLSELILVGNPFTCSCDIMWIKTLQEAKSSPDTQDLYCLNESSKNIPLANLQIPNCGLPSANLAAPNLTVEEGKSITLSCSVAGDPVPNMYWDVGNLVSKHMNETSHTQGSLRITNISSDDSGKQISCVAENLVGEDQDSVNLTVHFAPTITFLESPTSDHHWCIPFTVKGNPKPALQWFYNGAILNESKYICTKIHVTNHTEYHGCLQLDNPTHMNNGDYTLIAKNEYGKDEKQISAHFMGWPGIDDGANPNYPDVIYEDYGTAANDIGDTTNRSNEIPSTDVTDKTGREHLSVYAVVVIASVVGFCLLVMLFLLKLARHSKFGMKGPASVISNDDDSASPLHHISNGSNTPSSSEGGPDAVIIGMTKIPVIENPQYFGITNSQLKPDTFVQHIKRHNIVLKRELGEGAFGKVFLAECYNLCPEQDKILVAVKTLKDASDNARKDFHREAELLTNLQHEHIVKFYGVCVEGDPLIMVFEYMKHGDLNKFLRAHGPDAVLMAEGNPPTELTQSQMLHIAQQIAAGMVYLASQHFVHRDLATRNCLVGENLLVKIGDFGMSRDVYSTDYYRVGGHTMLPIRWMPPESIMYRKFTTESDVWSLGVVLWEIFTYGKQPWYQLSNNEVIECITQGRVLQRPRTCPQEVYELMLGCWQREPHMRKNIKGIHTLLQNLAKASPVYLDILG

KinomeScan kinase panel [9] = target: T9, KinomeScan kinase panel (Homo sapiens, UniProt Q8IWQ3); conditions: BRSK2, 10 µM; read-out: score (%)
T9 construct: purchased DiscoveRx (KinomeScan)
T9 sequence (Q8IWQ3 1-736): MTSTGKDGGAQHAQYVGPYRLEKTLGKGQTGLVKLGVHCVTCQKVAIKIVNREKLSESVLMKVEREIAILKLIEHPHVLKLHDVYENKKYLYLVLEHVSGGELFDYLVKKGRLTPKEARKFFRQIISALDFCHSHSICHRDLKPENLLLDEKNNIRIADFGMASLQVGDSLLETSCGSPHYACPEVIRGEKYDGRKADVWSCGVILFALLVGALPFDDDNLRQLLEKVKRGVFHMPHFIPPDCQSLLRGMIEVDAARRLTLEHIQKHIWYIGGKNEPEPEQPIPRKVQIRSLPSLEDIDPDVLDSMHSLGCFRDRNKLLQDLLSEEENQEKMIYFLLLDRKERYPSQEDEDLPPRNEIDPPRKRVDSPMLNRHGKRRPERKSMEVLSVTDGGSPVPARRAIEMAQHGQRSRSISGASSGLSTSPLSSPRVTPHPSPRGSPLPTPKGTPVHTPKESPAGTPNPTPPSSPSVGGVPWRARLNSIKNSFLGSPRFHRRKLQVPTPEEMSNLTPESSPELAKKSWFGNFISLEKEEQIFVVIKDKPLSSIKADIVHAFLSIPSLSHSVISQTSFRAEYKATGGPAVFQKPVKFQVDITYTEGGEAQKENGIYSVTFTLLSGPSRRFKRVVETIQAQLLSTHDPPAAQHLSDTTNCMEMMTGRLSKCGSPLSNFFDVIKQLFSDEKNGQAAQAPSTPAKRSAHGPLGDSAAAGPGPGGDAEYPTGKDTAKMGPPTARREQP

KinomeScan kinase panel [10] = target: T10, KinomeScan kinase panel (Homo sapiens, UniProt Q8WXR4); conditions: MYO3B, 10 µM; read-out: score (%)
T10 construct: purchased DiscoveRx (KinomeScan)
T10 sequence (Q8WXR4 1-1341): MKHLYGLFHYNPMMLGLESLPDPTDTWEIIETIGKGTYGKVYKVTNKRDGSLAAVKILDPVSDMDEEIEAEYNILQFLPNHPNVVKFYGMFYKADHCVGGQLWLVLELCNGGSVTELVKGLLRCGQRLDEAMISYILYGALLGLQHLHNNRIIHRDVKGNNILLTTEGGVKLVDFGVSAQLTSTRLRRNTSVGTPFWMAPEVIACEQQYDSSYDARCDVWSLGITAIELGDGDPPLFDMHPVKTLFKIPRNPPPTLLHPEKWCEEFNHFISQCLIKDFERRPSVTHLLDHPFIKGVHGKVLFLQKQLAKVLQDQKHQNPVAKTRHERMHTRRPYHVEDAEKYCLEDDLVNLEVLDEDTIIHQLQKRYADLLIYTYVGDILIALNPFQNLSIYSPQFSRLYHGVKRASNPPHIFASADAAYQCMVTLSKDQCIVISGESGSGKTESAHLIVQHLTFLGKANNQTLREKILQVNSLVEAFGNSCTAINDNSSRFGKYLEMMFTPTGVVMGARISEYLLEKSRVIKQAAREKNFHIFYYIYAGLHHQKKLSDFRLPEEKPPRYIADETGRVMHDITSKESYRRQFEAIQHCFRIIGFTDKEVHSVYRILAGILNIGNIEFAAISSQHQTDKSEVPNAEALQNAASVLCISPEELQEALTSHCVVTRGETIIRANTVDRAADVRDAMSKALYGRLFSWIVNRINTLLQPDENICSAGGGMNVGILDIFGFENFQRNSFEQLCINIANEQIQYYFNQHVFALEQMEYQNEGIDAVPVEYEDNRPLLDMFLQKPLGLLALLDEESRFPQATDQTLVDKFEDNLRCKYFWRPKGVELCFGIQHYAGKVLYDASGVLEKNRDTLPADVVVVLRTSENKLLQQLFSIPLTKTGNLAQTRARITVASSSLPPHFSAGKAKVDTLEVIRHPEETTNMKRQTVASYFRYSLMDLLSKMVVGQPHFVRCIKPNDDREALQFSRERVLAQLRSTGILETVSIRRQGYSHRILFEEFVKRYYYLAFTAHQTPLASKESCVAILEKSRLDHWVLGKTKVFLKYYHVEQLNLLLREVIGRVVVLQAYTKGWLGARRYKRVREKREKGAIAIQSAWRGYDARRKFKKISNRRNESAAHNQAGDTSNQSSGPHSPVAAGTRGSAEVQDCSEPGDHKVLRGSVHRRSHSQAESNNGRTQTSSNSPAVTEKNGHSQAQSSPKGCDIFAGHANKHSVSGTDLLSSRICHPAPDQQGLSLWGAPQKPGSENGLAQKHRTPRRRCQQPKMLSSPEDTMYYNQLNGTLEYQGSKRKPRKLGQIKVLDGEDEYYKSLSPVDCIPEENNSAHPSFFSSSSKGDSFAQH

KinomeScan kinase panel [11] = target: T11, KinomeScan kinase panel (Homo sapiens, UniProt Q9BVS4); conditions: read-out: score (%)
T11 construct: purchased DiscoveRx (KinomeScan)
T11 sequence (Q9BVS4 whole entry): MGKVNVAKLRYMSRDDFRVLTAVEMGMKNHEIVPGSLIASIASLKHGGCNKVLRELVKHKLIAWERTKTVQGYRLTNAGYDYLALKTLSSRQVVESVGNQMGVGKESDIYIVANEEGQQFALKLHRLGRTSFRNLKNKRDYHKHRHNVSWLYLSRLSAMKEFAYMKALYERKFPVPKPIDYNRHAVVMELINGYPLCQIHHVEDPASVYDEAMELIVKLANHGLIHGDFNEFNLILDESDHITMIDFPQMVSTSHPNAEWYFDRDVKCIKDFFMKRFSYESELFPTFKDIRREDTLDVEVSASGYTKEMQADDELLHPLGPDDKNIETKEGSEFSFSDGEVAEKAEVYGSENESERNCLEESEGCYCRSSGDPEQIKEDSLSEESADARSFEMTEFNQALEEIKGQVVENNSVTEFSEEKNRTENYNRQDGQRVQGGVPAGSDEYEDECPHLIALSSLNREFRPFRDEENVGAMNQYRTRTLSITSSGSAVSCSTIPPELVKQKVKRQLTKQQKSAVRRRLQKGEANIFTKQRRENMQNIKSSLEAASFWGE

KinomeScan kinase panel [12] = target: T12, KinomeScan kinase panel (Homo sapiens, UniProt Q9UIK4); conditions: DAPK2, 10 µM; read-out: score (%)
T12 construct: purchased DiscoveRx (KinomeScan)

T1 sequence (P19525 whole entry): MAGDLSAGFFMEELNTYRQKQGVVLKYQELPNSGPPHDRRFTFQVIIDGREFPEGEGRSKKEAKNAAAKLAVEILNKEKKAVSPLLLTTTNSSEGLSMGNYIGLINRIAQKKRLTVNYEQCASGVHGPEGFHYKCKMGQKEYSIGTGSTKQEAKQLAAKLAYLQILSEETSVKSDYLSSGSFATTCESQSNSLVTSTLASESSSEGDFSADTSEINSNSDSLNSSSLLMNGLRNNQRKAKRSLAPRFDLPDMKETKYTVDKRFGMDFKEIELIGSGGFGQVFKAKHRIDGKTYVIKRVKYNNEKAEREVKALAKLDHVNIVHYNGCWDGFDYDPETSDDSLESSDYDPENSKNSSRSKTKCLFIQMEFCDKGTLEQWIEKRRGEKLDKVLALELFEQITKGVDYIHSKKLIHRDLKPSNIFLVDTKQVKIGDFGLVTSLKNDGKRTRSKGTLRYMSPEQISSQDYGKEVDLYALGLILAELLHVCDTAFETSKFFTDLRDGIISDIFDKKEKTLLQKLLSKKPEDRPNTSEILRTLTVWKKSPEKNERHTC

| SMILES | score (%) (KinomeScan kinase panel [1]; PRKR) | remaining binding at 10 µM (KinomeScan kinase panel [2]) | remaining binding at 10 µM (KinomeScan kinase panel [3]) | remaining binding at 10 µM (KinomeScan kinase panel [4]) | remaining binding at 10 µM (KinomeScan kinase panel [5]) | remaining binding at 10 µM (KinomeScan kinase panel [6]; kinase TIE2, 10 µM) | remaining binding at 10 µM (KinomeScan kinase panel [7]) | remaining binding at 10 µM (KinomeScan kinase panel [8]; kinase TRKB) | remaining binding at 10 µM (KinomeScan kinase panel [9]) | remaining binding at 10 µM (KinomeScan kinase panel [10]) | remaining binding at 10 µM (KinomeScan kinase panel [11]; RIOK2, 10 µM) | remaining binding at 10 µM (KinomeScan kinase panel [12]) | score (%) (KinomeScan kinase panel [1]; kinase PRKR) | remaining binding at 10 µM (KinomeScan kinase panel [11]; kinase RIOK2, 10 µM) | remaining binding at 10 µM (KinomeScan kinase panel [6]; TIE2, 10 µM) | remaining binding at 10 µM (KinomeScan kinase panel [8]; TRKB) |
| --- | --- | --- | --- | --- | --- | --- | --- | --- | --- | --- | --- | --- | --- | --- | --- | --- |
| CCN1CCN(Cc2ccc(NC(=O)c3ccc(C)c(NC(=O)c4cncc(-c5cccs5)c4)c3)cc2C(F)(F)F)CC1 [ALW-II-41-27] | nb (Hits values higher than 30% were considered negative (no binding: nb)) | > 30% | > 30% | 2.4% | > 30% | 0.45% | 1.3% | 4% | > 30% | > 30% | > 30% | > 30% | – | – | – | – |
| CCN1CCN(Cc2ccc(NC(=O)c3ccc(C)c(C#Cc4cccnc4)c3)cc2C(F)(F)F)CC1 [XMD15-44] | – | > 30% | > 30% | > 30% | 58% | 0.05% | 1.8% | 1.6% | > 30% | 0% | – | > 30% | 66% | 0.5% | – | – |
| CCN1CCN(Cc2ccc(NC(=O)c3ccc(C)c(/C=C/c4cnc5[nH]ccc5c4Cl)c3)cc2C(F)(F)F)CC1 [HG-6-63-01, (E)-3-(2-(4-chloro-1H-pyrrolo[2,3-b]pyridin-5-yl)vinyl)-N-(4-((4-ethylpiperazin-1-yl)methyl)-3-(trifluoromethyl)phenyl)-4-methylbenzamide] | nb (Hits values higher than 30% were considered negative (no binding: nb)) | 29% | > 30% | > 30% | > 30% | – | 0.7% | – | > 30% | 30% | 33% | > 30% | – | – | 0.1% | 1.6% |
